# In patent US20220323406A1, “METHODS AND COMPOSITIONS FOR DIFFERENTIATING STEM CELLS” (Massachusetts Institute of Technology, priority 2019, published 2022):
# Where a name gives a salt, the structure may show the parent alone.
# What was measured:
# Details in all cases: primary screen
# ENR+CD organoids = assay: Primary screen: ATP (CellTiter-Glo 3D, CTG) cell number/viability, 2.5-D 384-well ENR+CD organoids;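 also: compounds given at plating and again on day 3 over a 6-day differentiation from ENR+CV stem-cell-enriched precursors, ATP measured on day 6, plate median as control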
# [1] = tested on: ENR+CD organoids (ISC to Paneth cell differentiation); assay: Primary screen: CCh-stimulated lysozyme secretion LYZ.S, 2.5-D 384-well ENR+CD organoid differentiation; type: cell-based, mouse
# Source text: (§1) High-throughput screening.
# [2] = tested on: ENR+CD organoids (ISC to Paneth cell differentiation); assay: Primary screen: basal (non-stimulated) lysozyme secretion LYZ.NS, 2.5-D 384-well ENR+CD organoid differentiation; type: cell-based, mouse
# Source text: as §1
# [3] = 1st dose row of the treatment (0.08 uM by row order; dose not reprinted)
# [4] = 2nd dose row of the treatment (0.40 uM by row order; dose not reprinted)
# [5] = 3rd dose row of the treatment (2.00 uM by row order; dose not reprinted)
# [6] = 4th dose row of the treatment (10.00 uM by row order; dose not reprinted)
Structure (SMILES),Dose.FC.CTG (ENR+CD organoids; dose 0.08 uM) [log2 fold change],Z.CTG (standard z score) (ENR+CD organoids; dose 0.08 uM),Dose.FC.CTG (ENR+CD organoids; dose 0.40 uM) [log2 fold change],Z.CTG (standard z score) (ENR+CD organoids; dose 0.40 uM),Dose.FC.CTG (ENR+CD organoids; dose 2.00 uM) [log2 fold change],Z.CTG (standard z score) (ENR+CD organoids; dose 2.00 uM),Dose.FC.CTG (ENR+CD organoids; dose 10.00 uM) [log2 fold change],Z.CTG (standard z score) (ENR+CD organoids; dose 10.00 uM),Dose.FC.LYZ.S ([1]; dose 0.08 uM) [log2 fold change],Dose.FC.LYZ.S ([1]; dose 0.40 uM) [log2 fold change],Dose.FC.LYZ.S ([1]; dose 2.00 uM) [log2 fold change],Dose.FC.LYZ.S ([1]; dose 10.00 uM) [log2 fold change],Dose.FC.LYZ.NS ([2]; dose 0.08 uM) [log2 fold change],Z.LYZ.NS (standard z score) ([2]; dose 0.08 uM),Dose.FC.LYZ.NS ([2]; dose 0.40 uM) [log2 fold change],Z.LYZ.NS (standard z score) ([2]; dose 0.40 uM),Dose.FC.LYZ.NS ([2]; dose 2.00 uM) [log2 fold change],Z.LYZ.NS (standard z score) ([2]; dose 2.00 uM),Dose.FC.LYZ.NS ([2]; dose 10.00 uM) [log2 fold change],Z.LYZ.NS (standard z score) ([2]; dose 10.00 uM),further results
CC1(C)CCC(CN2CCN(c3ccc(C(=O)NS(=O)(=O)c4ccc(NCC5CCOCC5)c([N+](=O)[O-])c4)c(Oc4cnc5[nH]ccc5c4)c3)CC2)=C(c2ccc(Cl)cc2)C1 [ABT-199 (GDC-0199)],0.019,0.045,0.038,0.090,−0.278,−0.665,−0.519,−1.240,−0.044,0.076,−0.063,−0.292,−0.002,−0.013,−0.029,−0.251,−0.016,−0.136,−0.169,−1.471,"SSMD.CTG.Rep (strictly standardized mean difference) (ENR+CD organoids; [3]): 0.051; SSMD.CTG.Rep (strictly standardized mean difference) (ENR+CD organoids; [4]): 0.111; SSMD.CTG.Rep (strictly standardized mean difference) (ENR+CD organoids; [5]): −0.377; SSMD.CTG.Rep (strictly standardized mean difference) (ENR+CD organoids; [6]): −1.402; SSMD.LYZ.S_Rep (strictly standardized mean difference) [1, 3]: −0.260; Z.LYZ.S (standard z score) [1, 3]: −0.285; SSMD.LYZ.S_Rep (strictly standardized mean difference) [1, 4]: 0.443; Z.LYZ.S (standard z score) [1, 4]: 0.494; SSMD.LYZ.S_Rep (strictly standardized mean difference) [1, 5]: −0.368; Z.LYZ.S (standard z score) [1, 5]: −0.404; SSMD.LYZ.S_Rep (strictly standardized mean difference) [1, 6]: −1.131; Z.LYZ.S (standard z score) [1, 6]: −1.890; SSMD.LYZ.NS_Rep (strictly standardized mean difference) [2, 3]: −0.009; SSMD.LYZ.NS_Rep (strictly standardized mean difference) [2, 4]: −0.192; SSMD.LYZ.NS_Rep (strictly standardized mean difference) [2, 5]: −0.116; SSMD.LYZ.NS_Rep (strictly standardized mean difference) [2, 6]: −0.810"
CC1(C)CCC(c2ccc(Cl)cc2)=C(CN2CCN(c3ccc(C(=O)NS(=O)(=O)c4ccc(N[C@H](CCN5CCOCC5)CSc5ccccc5)c(S(=O)(=O)C(F)(F)F)c4)cc3)CC2)C1 [ABT-263 (Navitoclax)],−0.212,−0.507,−0.264,−0.631,−0.368,−0.878,−0.962,−2.298,−0.010,−0.020,−0.205,−0.400,0.012,0.104,0.007,0.062,−0.143,−1.248,−0.259,−2.259,
CCN(CC)C(=O)c1ccc(C2=CC3(CCNCC3)Oc3cccc(O)c32)cc1 [ADL5859 HCl],0.270,,0.163,,0.291,,0.194,,0.079,0.104,0.070,−0.040,0.053,0.458,0.019,0.163,0.066,0.571,−0.056,−0.488,
O=C(c1ccc(F)cc1)N1CCC[C@H](c2nc(-c3ccc(F)cc3)no2)C1 [ADX-47273],0.115,0.274,−0.034,−0.082,−0.210,−0.501,−0.039,−0.094,0.147,0.147,−0.039,−0.070,0.269,2.346,0.053,0.457,−0.033,−0.286,−0.036,−0.311,
CN(C)Cc1ccc(-c2nc3cccc4c3n2CCNC4=O)cc1 [AG-14361],−0.012,−0.028,−0.069,−0.165,0.005,0.012,−0.021,−0.050,0.100,−0.001,−0.065,−0.189,0.152,1.324,0.036,0.312,0.032,0.278,−0.197,−1.713,
Cc1ccccc1C(C(=O)NC1CCCCC1)N(C(=O)Cn1ccnc1C)c1cccc(F)c1 (stereo not shown) [AGI-5198],0.309,,0.154,,0.281,,0.336,,0.092,0.185,0.073,−0.005,0.055,0.482,0.042,0.362,0.039,0.342,−0.007,−0.064,
O=C(Nc1cccc(C(F)(F)F)c1)Nc1cc(S(=O)(=O)NC2CC2)ccc1-c1ccsc1 [AGI-6780],0.281,0.671,0.231,0.551,0.298,0.713,0.107,0.256,0.095,0.156,0.055,−0.054,0.069,0.597,0.031,0.268,0.043,0.374,−0.090,−0.785,
CN1CCCCC1Cn1cc(C(=O)c2cc([N+](=O)[O-])ccc2I)c2ccccc21 (stereo not shown) [AM1241],0.159,0.379,−0.054,−0.129,−0.062,−0.147,−0.001,−0.002,0.046,0.088,−0.017,−0.080,0.052,0.454,0.004,0.035,−0.014,−0.123,−0.003,−0.028,
CC(=O)Nc1nc2c(Oc3cc(-c4ccc(C(F)(F)F)cc4)ncn3)cccc2s1 [AMG-517],0.161,,0.113,,0.112,,0.056,,0.084,0.060,0.002,0.266,0.020,0.178,0.060,0.522,−0.006,−0.051,0.031,0.267,
